Test system: C57Bl/6N male mice
Experiment: OGTT testing in C57Bl/6N male mice (oral glucose tolerance test)
Assay type: in vivo
Conditions: single per os dose 60 min before glucose 2 g/kg; Z1558775684 20 mg/kg, Metformin 300 mg/kg; compared with Vehicle-treated group; 5 mice per group
Experimental: Values are expressed as means of 5 animals tested. For glucose tolerance test (GTT), mice were orally treated with glucose at dose of 2 g/kg at the dose volume of 10 ml/kg after a 6-hour fasting. Glucose measurements were performed immediately before compound treatment (−60 min), at −30 min, 0 min (before glucose administration), and then 15, 30, 60, 90 and 120 min after glucose administration.
Example 87: OGTT Testing in C57Bl/6N Male Mice
Each experimental group consisted of five male C57Bl/6N mice. Animals were dosed once perorally with 20 mg/kg of tested compound Z1558775684. A control group was dosed with vehicle on the same schedule. Metformin at the dosage of 300 mg/kg was used as reference compound.
Compound Z1558775684 was dissolved/suspended in DMSO—PEG400—physiological saline (20%:50%:30%) at concentration 4 mg/ml. Metformin was dissolved in the same vehicle at concentration 60 mg/ml. The test samples were administered per os in the volume corresponding to 5 ml/kg body weight.
Single doses of test samples were administered 60 min before glucose treatment at 3 p.m.
The blood glucose level was measured after 6-hour fasting using Call Plus glucometer and specific test strips. Blood was obtained from the tail vein by incision of the tail tip, 5-6 μl of blood was used for each assay. […]

SMILES | glucose level during oral glucose tolerance test (OGTT)
CCc1nc(N)nc(SCc2ncc(-c3cccc(Cl)c3)o2)n1 [Compound Z1558775684, 4-(((5-(3-chlorophenyl)oxazol-2-yl)methyl)thio)-6-ethyl-1,3,5-triazin-2-amine] | Statistically significant decrease in glucose level
CN(C)C(=N)N=C(N)N [Metformin] | Statistically significant decrease in glucose level
